IC50, AC50 and EC50 data for 17 compounds are collected here from ChEMBL document CHEMBL1201862, “PubChem BioAssay data set” (2004).

Active and inactive are the calls of the source.

The target of experiment [1] is T1, G-protein coupled receptor 55 (Homo sapiens, UniProt Q9Y2T6). The experiment is described as follows: GPR55 antagonists blocking LPI-driven arrestin recruitment, primary screen, imaging, U2OS, beta-arrestin-GFP, LPI agonist (AID 2013).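 Further: antagonist potency measured as reduced agonist-driven arrestin aggregation.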 It counts as functional.
Experiment [2] has as its target T2, Cytochrome P450 3A4 (Homo sapiens, UniProt P08684). The conditions noted are these: Potency.
In experiment [3] the target is Peroxisome proliferator-activated receptor gamma/Nuclear receptor coactivator 1 (Homo sapiens, UniProt P37231). The experiment is classed as functional.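 Further: agonist potency as compounds enhance coactivator SRC-1 recruitment to PPARgamma.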
For experiment [4], the target named is Peroxisome proliferator-activated receptor gamma/Nuclear receptor coactivator 3 (Homo sapiens, UniProt P37231). The experiment is classed as functional.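 Further: agonist potency for raising coactivator recruitment to the receptor.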
Experiment [5] deals with Peroxisome proliferator-activated receptor gamma/Nuclear receptor coactivator 2 (Homo sapiens, UniProt P37231). It counts as functional.
Experiment [6] has as its target T3, Alkaline phosphatase, tissue-nonspecific isozyme (Homo sapiens, UniProt P05186).
T3 sequence (P05186 whole entry): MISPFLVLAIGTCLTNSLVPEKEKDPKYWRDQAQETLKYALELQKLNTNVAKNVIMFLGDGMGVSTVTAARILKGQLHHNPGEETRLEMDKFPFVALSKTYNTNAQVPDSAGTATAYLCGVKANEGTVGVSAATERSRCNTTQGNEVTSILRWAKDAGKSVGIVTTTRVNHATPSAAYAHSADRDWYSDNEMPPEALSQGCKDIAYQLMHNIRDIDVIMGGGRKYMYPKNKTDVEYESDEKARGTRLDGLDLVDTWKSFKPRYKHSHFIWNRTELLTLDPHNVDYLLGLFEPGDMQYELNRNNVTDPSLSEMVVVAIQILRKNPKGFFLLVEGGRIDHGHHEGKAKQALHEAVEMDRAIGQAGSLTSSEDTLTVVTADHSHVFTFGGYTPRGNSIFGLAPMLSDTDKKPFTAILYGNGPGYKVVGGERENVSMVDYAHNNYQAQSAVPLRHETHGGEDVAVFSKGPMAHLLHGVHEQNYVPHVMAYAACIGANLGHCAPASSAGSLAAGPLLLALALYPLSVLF
The experiment is described as follows: human TNAP enzyme inhibitors, SAR follow-up, biochemical, luminescent, dose response (AID 1056).

Experiment [7] has as its target Glyceraldehyde-3-phosphate dehydrogenase (Homo sapiens, UniProt P04406).
Another experiment concerns the target T4, Aminopeptidase N (Plasmodium falciparum FcB1/Columbia, UniProt O96935).
T4 sequence (O96935 whole entry): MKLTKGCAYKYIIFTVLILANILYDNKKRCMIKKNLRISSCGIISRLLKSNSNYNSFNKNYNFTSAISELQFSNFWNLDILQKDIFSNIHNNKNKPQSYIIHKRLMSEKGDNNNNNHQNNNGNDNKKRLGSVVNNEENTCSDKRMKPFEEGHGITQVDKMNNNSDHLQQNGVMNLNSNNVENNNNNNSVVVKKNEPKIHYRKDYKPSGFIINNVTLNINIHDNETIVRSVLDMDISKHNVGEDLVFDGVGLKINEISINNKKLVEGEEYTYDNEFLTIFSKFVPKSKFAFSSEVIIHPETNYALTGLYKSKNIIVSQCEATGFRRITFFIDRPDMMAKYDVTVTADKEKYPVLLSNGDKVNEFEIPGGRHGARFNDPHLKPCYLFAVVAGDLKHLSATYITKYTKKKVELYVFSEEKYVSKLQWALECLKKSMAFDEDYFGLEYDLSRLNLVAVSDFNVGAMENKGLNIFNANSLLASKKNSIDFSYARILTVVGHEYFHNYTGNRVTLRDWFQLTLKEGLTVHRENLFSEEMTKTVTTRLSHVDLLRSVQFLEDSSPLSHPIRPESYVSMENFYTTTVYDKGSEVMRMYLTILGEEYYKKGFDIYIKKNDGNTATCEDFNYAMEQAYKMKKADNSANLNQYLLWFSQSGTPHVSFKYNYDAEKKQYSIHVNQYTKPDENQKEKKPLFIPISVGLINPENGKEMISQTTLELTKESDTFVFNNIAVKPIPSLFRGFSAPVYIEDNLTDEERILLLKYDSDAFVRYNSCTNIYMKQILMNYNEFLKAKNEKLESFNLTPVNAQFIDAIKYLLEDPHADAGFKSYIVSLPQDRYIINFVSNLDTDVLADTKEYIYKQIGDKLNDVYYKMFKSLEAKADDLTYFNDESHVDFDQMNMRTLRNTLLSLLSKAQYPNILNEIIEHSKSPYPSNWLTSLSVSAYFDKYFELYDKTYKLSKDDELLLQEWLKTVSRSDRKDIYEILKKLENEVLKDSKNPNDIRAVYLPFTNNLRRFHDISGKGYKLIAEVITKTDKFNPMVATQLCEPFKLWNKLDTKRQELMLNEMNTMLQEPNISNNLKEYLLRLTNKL
Nature of the experiment: P. falciparum M1AAP inhibitors, biochemical, fluorogenic H-Leu-NHMec substrate, 1536-well (AID 1445). Set-up: species or system Plasmodium falciparum 3D7, 3D7.

For experiment [8], the target named is T5, Ubiquitin-conjugating enzyme E2 N (Homo sapiens, UniProt P61088).
T5 sequence (P61088 whole entry): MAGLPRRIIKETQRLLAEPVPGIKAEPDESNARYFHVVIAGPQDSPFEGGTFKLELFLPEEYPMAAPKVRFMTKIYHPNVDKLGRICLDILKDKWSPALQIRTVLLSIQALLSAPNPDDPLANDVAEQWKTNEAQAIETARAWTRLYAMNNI
It counts as functional.

In experiment [9] the target is T5, Ubiquitin-conjugating enzyme E2 N. The experiment is classed as functional. The source holds these as a separate data set.
Another experiment deals with T6, Bcl-2-related protein A1 (Mus musculus, UniProt Q07440).
T6 sequence (Q07440 whole entry): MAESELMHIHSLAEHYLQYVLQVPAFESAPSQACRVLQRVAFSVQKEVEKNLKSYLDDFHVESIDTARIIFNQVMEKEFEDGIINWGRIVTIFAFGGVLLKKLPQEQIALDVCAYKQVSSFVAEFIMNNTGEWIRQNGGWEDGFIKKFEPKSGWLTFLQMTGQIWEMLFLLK
The experiment is classed as functional.

A further experiment deals with T7, Leucine aminopeptidase (Plasmodium falciparum 3D7, UniProt Q8IL11).
T7 sequence (Q8IL11 whole entry): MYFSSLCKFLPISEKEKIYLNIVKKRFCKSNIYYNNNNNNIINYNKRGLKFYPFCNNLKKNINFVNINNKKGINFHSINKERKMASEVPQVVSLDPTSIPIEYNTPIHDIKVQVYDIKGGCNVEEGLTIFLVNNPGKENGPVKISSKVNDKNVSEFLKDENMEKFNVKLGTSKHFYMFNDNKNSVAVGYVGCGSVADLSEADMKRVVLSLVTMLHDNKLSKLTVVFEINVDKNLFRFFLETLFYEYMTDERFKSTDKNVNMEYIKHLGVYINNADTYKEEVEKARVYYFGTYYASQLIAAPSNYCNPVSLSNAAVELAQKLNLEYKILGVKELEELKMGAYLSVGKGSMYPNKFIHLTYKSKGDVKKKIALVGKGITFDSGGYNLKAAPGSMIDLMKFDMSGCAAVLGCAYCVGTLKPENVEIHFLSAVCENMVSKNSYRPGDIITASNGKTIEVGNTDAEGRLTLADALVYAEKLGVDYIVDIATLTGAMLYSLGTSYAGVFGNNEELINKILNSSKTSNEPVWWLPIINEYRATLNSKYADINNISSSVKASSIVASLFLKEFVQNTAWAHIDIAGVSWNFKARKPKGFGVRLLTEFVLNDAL
Nature of the experiment: P. falciparum M17LAP inhibitors, primary screen, biochemical, fluorogenic H-Leu-NHMec substrate, 1536-well (AID 1619). The experiment is classed as functional.

The subject of a further experiment is Streptococcus. Nature of the experiment: Group A Streptococcus viability loss, dose response, counter-screen for streptokinase expression inhibitor project, luminescence, BacTiterGlo (AID 1915).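 Further: potency for reduction of bacterial viability or growth.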 It counts as functional, organism-based. (In general: A counterscreen serves to expose hits that act by an unwanted route or on another target.)
The subject of experiment [10] is Streptococcus sp. 'group A'. The experiment is described as follows: growth inhibition of control SK(-) GAS strain, dose response, counter-screen for streptokinase expression inhibitor project, luminescence, kanamycin, BacTiterGlo, confirmation (AID 1900). The experiment is classed as functional, organism-based.
The target in experiment [11] is T1, G-protein coupled receptor 55. The experiment is described as follows: GPR55 agonists via beta-arrestin recruitment, primary screen, imaging, U2OS cells, beta-arrestin-GFP redistribution (AID 1961). The experiment is classed as functional.
Experiment [12] has as its target T2, Cytochrome P450 3A4.
In the next experiment the target is T8, Streptokinase A (Streptococcus pyogenes serotype M1, UniProt P10520).
T8 sequence (P10520 whole entry): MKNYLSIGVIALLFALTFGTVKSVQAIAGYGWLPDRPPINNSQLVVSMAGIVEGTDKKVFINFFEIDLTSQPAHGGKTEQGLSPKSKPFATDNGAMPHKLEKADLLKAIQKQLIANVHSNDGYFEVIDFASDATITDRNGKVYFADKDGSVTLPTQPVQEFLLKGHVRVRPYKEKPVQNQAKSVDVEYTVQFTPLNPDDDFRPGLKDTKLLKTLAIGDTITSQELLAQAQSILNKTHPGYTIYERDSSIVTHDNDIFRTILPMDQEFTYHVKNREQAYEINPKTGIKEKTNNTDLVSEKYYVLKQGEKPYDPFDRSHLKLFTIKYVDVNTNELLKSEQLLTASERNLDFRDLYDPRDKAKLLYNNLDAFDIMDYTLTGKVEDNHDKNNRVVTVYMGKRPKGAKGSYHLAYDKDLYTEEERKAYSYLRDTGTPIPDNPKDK
Nature of the experiment: S. pyogenes streptokinase expression inhibitors, potency, dose response, plasminogen activation absorbance, OD405 (AID 1914).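 Further: secreted streptokinase activity via plasminogen activation per viability signal from cell pellet.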 The experiment is classed as functional, Streptococcus pyogenes M1 GAS.

The target of experiment [13] is Voltage-dependent T-type calcium channel subunit alpha-1H (Homo sapiens, UniProt O95180). It counts as functional.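 Further: channel activity triggered by adding a high calcium stimulation buffer.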
Experiment [14] is described as follows: cytotoxicity in HPDE-C7 cells, cell-based, fluorescence, HTS (AID 430). The experiment is classed as functional. The conditions noted are these: Homo sapiens.
Experiment [15] is described as follows: cytotoxicity in KRAS-transformed pancreatic duct cells, primary screen, cell-based, fluorescence, HTS (AID 431).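 Further: cell line used: HPDE-C7K.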 The experiment is classed as functional. The conditions noted are these: Homo sapiens.
In the next experiment the target is Cytochrome P450 2D6 (Homo sapiens, UniProt P10635).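 Further: CYP2D6 member of a cytochrome P450 panel assay.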

Sequence of Glyceraldehyde-3-phosphate dehydrogenase (P04406 whole entry): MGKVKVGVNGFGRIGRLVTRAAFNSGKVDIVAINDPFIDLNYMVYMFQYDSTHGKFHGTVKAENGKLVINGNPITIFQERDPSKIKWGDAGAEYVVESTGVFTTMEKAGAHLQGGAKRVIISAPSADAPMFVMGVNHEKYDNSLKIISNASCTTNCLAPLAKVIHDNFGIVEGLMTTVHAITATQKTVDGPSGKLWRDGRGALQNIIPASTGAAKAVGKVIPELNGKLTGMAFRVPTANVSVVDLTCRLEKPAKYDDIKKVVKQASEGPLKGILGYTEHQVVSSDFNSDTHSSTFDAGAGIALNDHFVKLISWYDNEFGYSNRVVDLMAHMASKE
T1 sequence (Q9Y2T6 whole entry): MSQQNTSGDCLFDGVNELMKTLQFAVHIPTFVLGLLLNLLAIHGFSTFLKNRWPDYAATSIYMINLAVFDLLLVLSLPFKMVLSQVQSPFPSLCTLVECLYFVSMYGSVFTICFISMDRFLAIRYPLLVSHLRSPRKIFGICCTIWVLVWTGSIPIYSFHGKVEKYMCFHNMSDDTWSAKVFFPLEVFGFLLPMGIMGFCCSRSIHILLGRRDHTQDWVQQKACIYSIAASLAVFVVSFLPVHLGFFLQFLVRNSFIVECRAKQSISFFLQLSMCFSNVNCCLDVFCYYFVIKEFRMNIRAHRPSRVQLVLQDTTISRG
T2 sequence (P08684 whole entry): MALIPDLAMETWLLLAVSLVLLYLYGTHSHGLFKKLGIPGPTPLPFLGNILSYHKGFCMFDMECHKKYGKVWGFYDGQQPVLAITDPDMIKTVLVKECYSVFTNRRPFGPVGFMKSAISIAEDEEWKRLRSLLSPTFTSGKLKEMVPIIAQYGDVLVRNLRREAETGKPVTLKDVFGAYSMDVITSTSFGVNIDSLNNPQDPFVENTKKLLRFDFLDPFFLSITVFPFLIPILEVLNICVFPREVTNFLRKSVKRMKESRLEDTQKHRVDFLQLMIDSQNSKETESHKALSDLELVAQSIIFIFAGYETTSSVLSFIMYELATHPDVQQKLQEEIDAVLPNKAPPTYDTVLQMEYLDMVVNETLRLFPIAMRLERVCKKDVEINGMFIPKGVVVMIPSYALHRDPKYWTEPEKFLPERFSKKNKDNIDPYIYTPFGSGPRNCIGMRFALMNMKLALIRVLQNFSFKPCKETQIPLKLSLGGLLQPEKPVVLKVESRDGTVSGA
Sequence of Peroxisome proliferator-activated receptor gamma/Nuclear receptor coactivator 2 (P37231 whole entry): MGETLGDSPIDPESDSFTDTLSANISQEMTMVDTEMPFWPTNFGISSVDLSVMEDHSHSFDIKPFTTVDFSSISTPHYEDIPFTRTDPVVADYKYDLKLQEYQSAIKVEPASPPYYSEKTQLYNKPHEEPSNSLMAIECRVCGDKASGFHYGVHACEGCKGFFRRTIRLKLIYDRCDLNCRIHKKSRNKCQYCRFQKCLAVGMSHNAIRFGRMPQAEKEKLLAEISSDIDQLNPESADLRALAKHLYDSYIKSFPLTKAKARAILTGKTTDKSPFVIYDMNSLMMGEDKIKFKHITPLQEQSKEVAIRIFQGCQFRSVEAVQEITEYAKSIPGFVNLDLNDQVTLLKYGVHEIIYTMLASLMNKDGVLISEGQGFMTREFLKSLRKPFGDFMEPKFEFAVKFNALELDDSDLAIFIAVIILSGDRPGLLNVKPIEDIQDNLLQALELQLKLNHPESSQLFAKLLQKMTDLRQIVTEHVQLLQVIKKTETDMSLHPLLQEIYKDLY
Sequence of Peroxisome proliferator-activated receptor gamma/Nuclear receptor coactivator 2 (Q15596 whole entry, further chain): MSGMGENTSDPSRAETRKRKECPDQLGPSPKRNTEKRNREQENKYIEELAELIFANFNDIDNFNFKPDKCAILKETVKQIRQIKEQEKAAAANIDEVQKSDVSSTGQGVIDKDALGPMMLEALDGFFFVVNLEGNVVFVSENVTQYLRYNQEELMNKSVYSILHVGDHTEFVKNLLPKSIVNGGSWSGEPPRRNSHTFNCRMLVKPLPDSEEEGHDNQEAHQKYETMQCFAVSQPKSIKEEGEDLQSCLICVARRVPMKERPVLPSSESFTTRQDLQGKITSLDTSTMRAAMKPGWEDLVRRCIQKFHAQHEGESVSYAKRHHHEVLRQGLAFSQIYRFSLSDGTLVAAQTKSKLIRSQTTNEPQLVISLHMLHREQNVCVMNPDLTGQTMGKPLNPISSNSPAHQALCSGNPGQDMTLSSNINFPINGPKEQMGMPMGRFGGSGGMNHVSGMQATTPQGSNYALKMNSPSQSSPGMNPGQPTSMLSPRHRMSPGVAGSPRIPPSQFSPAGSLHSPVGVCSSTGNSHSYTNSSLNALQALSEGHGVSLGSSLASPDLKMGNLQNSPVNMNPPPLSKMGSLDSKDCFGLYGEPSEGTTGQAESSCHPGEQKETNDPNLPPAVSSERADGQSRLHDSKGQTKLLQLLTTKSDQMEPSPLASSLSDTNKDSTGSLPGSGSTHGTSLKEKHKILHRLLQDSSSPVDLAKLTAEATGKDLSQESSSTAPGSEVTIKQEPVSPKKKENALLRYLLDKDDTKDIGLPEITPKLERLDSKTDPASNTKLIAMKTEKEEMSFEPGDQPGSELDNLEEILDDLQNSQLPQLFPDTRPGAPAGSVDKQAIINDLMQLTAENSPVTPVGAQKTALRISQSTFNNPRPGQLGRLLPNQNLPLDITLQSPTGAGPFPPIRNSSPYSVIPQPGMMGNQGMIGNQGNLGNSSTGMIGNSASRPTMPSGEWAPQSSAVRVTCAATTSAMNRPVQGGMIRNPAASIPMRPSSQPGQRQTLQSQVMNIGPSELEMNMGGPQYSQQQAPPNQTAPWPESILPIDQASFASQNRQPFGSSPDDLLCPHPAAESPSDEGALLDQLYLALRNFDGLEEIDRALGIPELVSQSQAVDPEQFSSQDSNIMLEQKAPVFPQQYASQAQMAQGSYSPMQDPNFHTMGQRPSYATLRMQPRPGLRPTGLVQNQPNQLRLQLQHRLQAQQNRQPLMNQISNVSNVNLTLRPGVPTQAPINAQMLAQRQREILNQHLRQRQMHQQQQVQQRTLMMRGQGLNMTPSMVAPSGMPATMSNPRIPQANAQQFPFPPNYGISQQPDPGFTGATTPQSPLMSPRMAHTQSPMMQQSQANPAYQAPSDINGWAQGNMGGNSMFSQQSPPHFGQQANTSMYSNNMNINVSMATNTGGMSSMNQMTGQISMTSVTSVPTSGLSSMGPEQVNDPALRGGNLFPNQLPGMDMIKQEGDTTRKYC
Sequence of Peroxisome proliferator-activated receptor gamma/Nuclear receptor coactivator 3 (P37231 whole entry): as the sequence (P37231 whole entry) above
Sequence of Peroxisome proliferator-activated receptor gamma/Nuclear receptor coactivator 3 (Q9Y6Q9 whole entry, further chain): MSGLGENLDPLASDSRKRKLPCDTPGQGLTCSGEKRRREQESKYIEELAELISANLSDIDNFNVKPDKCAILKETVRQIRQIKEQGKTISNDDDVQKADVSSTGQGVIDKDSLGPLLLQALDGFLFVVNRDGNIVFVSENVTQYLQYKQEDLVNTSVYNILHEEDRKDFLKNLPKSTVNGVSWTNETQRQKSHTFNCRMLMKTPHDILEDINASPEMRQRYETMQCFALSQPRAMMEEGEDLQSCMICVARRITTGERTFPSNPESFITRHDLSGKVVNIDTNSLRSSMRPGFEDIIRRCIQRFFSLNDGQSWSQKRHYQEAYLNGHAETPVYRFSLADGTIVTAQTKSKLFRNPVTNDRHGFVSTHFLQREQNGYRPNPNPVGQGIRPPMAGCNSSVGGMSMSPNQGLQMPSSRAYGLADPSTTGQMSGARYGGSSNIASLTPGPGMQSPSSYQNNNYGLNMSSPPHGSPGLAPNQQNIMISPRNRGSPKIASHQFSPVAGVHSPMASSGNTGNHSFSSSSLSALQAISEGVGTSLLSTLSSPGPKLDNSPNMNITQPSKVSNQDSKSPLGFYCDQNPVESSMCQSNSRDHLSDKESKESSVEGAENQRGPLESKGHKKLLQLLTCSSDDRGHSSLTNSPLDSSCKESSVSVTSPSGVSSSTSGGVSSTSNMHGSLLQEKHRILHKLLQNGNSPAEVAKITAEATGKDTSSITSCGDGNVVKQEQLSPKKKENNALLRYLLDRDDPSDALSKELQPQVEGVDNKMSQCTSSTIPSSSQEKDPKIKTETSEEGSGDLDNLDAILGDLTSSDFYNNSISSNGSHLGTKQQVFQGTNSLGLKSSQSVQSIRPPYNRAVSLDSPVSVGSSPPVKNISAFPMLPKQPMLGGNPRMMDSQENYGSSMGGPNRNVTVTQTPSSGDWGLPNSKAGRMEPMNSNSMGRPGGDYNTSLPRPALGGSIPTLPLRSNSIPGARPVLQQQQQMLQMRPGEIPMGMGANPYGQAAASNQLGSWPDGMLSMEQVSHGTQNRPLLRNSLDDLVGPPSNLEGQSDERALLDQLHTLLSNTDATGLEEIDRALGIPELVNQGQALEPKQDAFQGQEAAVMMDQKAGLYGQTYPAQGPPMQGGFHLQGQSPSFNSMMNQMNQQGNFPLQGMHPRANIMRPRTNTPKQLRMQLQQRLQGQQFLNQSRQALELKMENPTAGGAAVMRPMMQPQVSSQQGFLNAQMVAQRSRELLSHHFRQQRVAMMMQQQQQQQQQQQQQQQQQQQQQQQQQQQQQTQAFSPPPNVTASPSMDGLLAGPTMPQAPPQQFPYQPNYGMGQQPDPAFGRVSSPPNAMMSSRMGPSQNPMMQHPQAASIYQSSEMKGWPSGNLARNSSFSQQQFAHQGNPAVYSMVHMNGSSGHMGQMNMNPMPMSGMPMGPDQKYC

Take `CN1C(=O)/C(=C/c2c[nH]nc2-c2ccccc2)SC1=S`: the IC50 in experiment [1] was 0.653 µM (active).
For the compound `COc1ccc(-c2nc3c(c4c2CC(C)OC4)CN(CCC(C)C)CC3)cc1` (stereo unspecified), the AC50 at Cytochrome P450 3A4 [2] was 3.16 µM (inconclusive).
With `CC1(C)Cc2c(C#N)c(SCC(=O)c3ccccc3)nc(N3CCOCC3)c2CO1`, the EC50 is recorded as > 79.4 µM (not active) in [3], > 79.4 µM (not active) in experiment [4] and 79.4 µM (not active) in experiment [5].
For `COc1cc(N(O)O)ccc1S(=O)(=O)Nc1cnc2ccccc2c1`, the half-maximal inhibitory concentration (IC50) was 0.74 µM (active) in [6] and > 100 µM (not active) in experiment [7].
For the compound `CCCN(CCC)C(=O)CSc1nc2c(sc(=S)n2-c2ccc(OCC)cc2)c(=O)[nH]1`, the IC50 on Aminopeptidase N is 68.3 µM (active); in experiment [1] it was 1.77 µM (active).
On to `O=C(c1cccc(S(=O)(=O)N2CCCC2)c1)N1CCCC(C(F)(F)F)C1` (stereo unspecified), for which the figures for the IC50 (in experiment [8]; in [9]; on Bcl-2-related protein A1) were 10.7 µM (active), 8.31 µM (active) and > 20 µM (inactive), respectively.
On to `O=C(CN1C(=O)c2ccccc2S1(=O)=O)NCCSc1ccccc1`, for which the IC50 on Leucine aminopeptidase was 5.54 µM (active).
In the case of `FC(F)(F)c1ccc(CN2C[C@@H]3C(c4ccc(C(F)(F)F)cc4)C4(c5ccccc5)CC3(C4)[C@H]2c2ccccc2)cc1` (stereo partly specified), the AC50 on Cytochrome P450 3A4 [2] was 0.316 µM (inconclusive).
Consider `CC(=O)c1cccc(NC(=O)c2cc3ccccn3n2)c1`, for which the half-maximal effective concentration (EC50) in [3], in [4] and in experiment [5] was > 79.4 µM (not active) throughout.
With `CCCCCn1c(CN2CCN(c3cc(Cl)ccc3C)CC2)nc2c1c(=O)[nH]c(=O)n2C`, the concentration giving a half-maximal response (EC50) is 5.85 µM (active) in the experiment on Streptococcus; 4.65 µM (active) in experiment [10]; 4.7 µM (active) in experiment [11]; > 150 µM (not active) on Streptokinase A; 5.57 µM (active) in experiment [13]; 12.8 µM (active) in experiment [14]. In addition, the EC50 in [15] was > 20 µM (not active). On Cytochrome P450 3A4 [12], the AC50 is 2.24 µM (inconclusive).
With `CCOC(=O)C(=Cc1ccc(-c2ccsc2C(=O)OC)o1)C(=O)OCC`, in [11], the EC50 is 18.4 µM (inactive). In addition, the AC50 on Cytochrome P450 2D6 and at Cytochrome P450 3A4 [12] was 39.8 µM (inconclusive) in each case.
Take `COc1ccc(OC)c(C(=O)Nc2cnc3ccccc3c2)c1`: the IC50 in experiment [6] was > 100 µM (inactive); in [7] it was > 100 µM (not active).
Consider `C=C(C)C(O)/C=C/CCCCCCC` (stereo unspecified), for which the AC50 on Cytochrome P450 3A4 [2] was 3.98 µM (inconclusive).
Turning to `CCc1ccc(OC)c(S(=O)(=O)Nc2cccnc2)c1`, the figures for the IC50 in [6] and in experiment [7] were 1.72 µM (active) and > 100 µM (not active), respectively.
Turning to `CC1CCN(Cc2c(C(=O)N/N=C/c3ccc(OC(C)C)cc3)nnn2-c2nonc2N)CC1`, in [11], the EC50 is 3.41 µM (active).
Turning to `CC(/C=N/NC(=O)c1nnn(-c2nonc2N)c1CN1CCCCC1)=C\c1ccccc1`, the EC50 in experiment [11] was < 0.5 µM (active).
With `COc1ccc(C)cc1N`, the AC50 at Cytochrome P450 3A4 [2] was 31.6 µM (inconclusive).

By IC50 is commonly meant the concentration at which inhibition is half-maximal. In general, AC50 refers to the midpoint of the concentration-response curve, whichever way the signal moves. What is called EC50 is the midpoint of the concentration-response curve.
